Measured values: ChEMBL document CHEMBL1697781, “Assessment of the health effects of chemicals in humans: II. Construction of an adverse effects database for QSAR modeling” (Curr Drug Discov Technol, 2004)
Numbered stars: 1 amine (or outer) side, 2 acyl side, 3 side chain; on linkers, the order of the positions; unused ones are H or OH. Bridge positions count the residues as written; N and C are the ends. Square brackets hold non-standard residues; d marks the D form. Peptide text beside a SMILES is read from it. I, II: the chains in the order shown. Actinocin(9to1) = Cc1c2oc3c(C)ccc(C(=O)[*:1])c3nc-2c(C(=O)[*:2])c(N)c1=O; NMeV = CN[C@H](C(=O)O)C(C)C; Sar = CNCC(=O)O

Key:
Settings in all cases: human; call rule not given here
Hepatotoxicity [1] = experiment: FDA HLAED, liver enzyme composite activity
Hepatotoxicity [2] = experiment: FDA HLAED, alkaline phosphatase increase
Hepatotoxicity [3] = experiment: FDA HLAED, serum glutamic oxaloacetic transaminase (SGOT) increase
Hepatotoxicity [4] = experiment: FDA HLAED, serum glutamic pyruvic transaminase (SGPT) increase

Structure (SMILES)	Composite Activity - Active (Hepatotoxicity [1])	Composite Activity - Marginal (Hepatotoxicity [1])	Composite Activity - Score (Hepatotoxicity [1])	Alkaline Phosphatase Increase - Activity Score (Hepatotoxicity [2])	Alkaline Phosphatase Increase - Index Value (Hepatotoxicity [2])	Alkaline Phosphatase Increase - Number of Reports (Hepatotoxicity [2])	SGOT Increase - Activity Score (Hepatotoxicity [3])	SGOT Increase - Index Value (Hepatotoxicity [3])	SGOT Increase - Number of Reports (Hepatotoxicity [3])	Composite Activity - Active (Hepatotoxicity [1]; Liver)	Composite Activity - Marginal (Hepatotoxicity [1]; Liver)	Composite Activity - Score (Hepatotoxicity [1]; Liver)	SGPT Increase - Activity Score (Hepatotoxicity [4])	SGPT Increase - Index Value (Hepatotoxicity [4])	SGPT Increase - Number of Reports (Hepatotoxicity [4])
NCC(CC(=O)O)c1ccc(Cl)cc1 (stereo not drawn) [BACLOFEN]	2	0	Active	Active	5.4	>= 4	Active	5.4	>= 4						
Nc1ccn([C@@H]2O[C@H](CO)[C@@H](O)[C@@H]2O)c(=O)n1 [CYTARABINE]				Active	4.1	>= 4	Active	6.1	>= 4	3	0	Active	Active	4.1	>= 4
Cc1c2oc3c(C)ccc(C(=O)N[C@@H]4C(=O)N[C@H](C(C)C)C(=O)N5CCC[C@H]5C(=O)N(C)CC(=O)N(C)[C@@H](C(C)C)C(=O)O[C@@H]4C)c3nc-2c(C(=O)N[C@@H]2C(=O)N[C@H](C(C)C)C(=O)N3CCC[C@H]3C(=O)N(C)CC(=O)N(C)[C@@H](C(C)C)C(=O)O[C@@H]2C)c(N)c1=O [DACTINOMYCIN] (I: T[dV]P[Sar][NMeV] / II: T[dV]P[Sar][NMeV]; ester I:1-I:C, II:1-II:C; linker I:N-II:N via Actinocin(9to1))	2	0	Active				Active	29.6	>= 4				Active	23.7	>= 4
CCCCCCCCCCCCCCCCCC(=O)O.CC[C@H]1OC(=O)[C@H](C)[C@@H](O[C@H]2C[C@@](C)(OC)[C@@H](O)[C@H](C)O2)[C@H](C)[C@@H](O[C@@H]2O[C@H](C)C[C@H](N(C)C)[C@H]2OC(C)=O)[C@](C)(O)C[C@@H](C)C(=O)[C@H](C)[C@@H](O)[C@]1(C)O [ERYTHROMYCIN ACISTRATE]	3	0	Active	Active	7.3	>= 4	Active	7.9	>= 4				Active	8.5	>= 4
CC(O)(P(=O)(O)O)P(=O)(O)O [ETIDRONIC ACID]	1	0		Active	8.6	>= 4									
FC(F)(F)C(Cl)Br (stereo not drawn) [HALOTHANE]	1	0					Active	16.5	>= 4						
COc1ccc2c(c1)c(CC(=O)O)c(C)n2C(=O)c1ccc(Cl)cc1 [INDOMETHACIN]	0	2		Marginally Active	3.1	>= 4	Marginally Active	3.8	>= 4						
CN1CCN(C2=Nc3ccccc3Oc3ccc(Cl)cc32)CC1 [LOXAPINE]	2	0	Active				Active	9.9	>= 4				Active	9.9	>= 4
Cc1cccc(Nc2ccccc2C(=O)O)c1C [MEFENAMIC ACID]							Active	26	>= 4	2	0	Active	Active	19.5	< 4
Sc1ncnc2nc[nH]c12 [MERCAPTOPURINE ANHYDROUS]							Active	4.4	>= 4	2	0	Active	Active	5.2	>= 4
Cc1ncc([N+](=O)[O-])n1CCO [METRONIDAZOLE]	1	0		Active	6.2	>= 4									
CN(C)c1ccc(O)c2c1C[C@H]1C[C@H]3[C@H](N(C)C)C(O)=C(C(N)=O)C(=O)[C@@]3(O)C(O)=C1C2=O [MINOCYCLINE]	0	2					Marginally Active	No Shipping Units	>= 4				Marginally Active	No Shipping Units	>= 4
CCOc1ccc2ccccc2c1C(=O)N[C@@H]1C(=O)N2[C@@H]1SC(C)(C)[C@@H]2C(=O)O [NAFCILLIN]	1	0		Active	10.9	>= 4									
CNCCC=C1c2ccccc2CCc2ccccc21 [NORTRIPTYLINE]				Active	15.4	>= 4				1	1		Marginally Active	11.6	< 4
CSc1ccc2c(c1)N(CCC1CCCCN1C)c1ccccc1S2 (stereo not drawn) [THIORIDAZINE]	0	1		Marginally Active	3.2	>= 4									
